Test results from patent publication US20220397580A1, “METHOD OF DETECTING A NEURODEGENERATIVE DISEASE” (NATIONAL UNIVERSITY OF SINGAPORE, priority 2019, published 2022).

Tested on: exosomes derived from neuronal cells (SH-SY5Y)
Test: Exosome-Aβ association kinetics on APEX (SPR) sensor functionalized with protein aggregates
Format: binding, Human
Conditions: relative to BSA controls
Description: Characterization of exosome-A13 association. The prepared protein aggregates (Aβ42 and BSA control) were used for surface functionalization onto the APEX sensors, via EDC/NHS coupling as previously described. Unbound protein aggregates were washed away with PBS. The amount of protein conjugated was measured from the resultant transmission spectral shifts. This information was used to determine the number of conjugated protein aggregates and their associated total protein surface area for exosome binding (see below for detailed information), so as to normalize for binding affinities. Following surface functionalization with the protein aggregates, exosomes ([…]) were introduced onto the sensors. Spectral changes were measured every 3 s for a total duration of 480 s to construct real-time kinetics sensorgrams. Exosome association kinetics and binding affinities were determined for different-sized protein aggregates.
To account for protein aggregate size differences as well as SPR-associated exponential decay of sensitivity (with increasing distance from the sensing surface), the following equation was used
S=E×∫0^2rπ[r^2−(r−z)^2]×e^(−2z/l^d^)dz […]
All protein aggregates were approximated as spheres, as supported by transmission electron micrographs (FIG. 3b, left) and their r determined from dynamic light scattering analysis. […]

## bigger Aβ42 aggregates: Aβ42 protein (rPeptide) incubated with agitation for 1 h to induce further aggregation, filtered through 0.2-μm membrane
Exosome binding data normalized to aggregate surface area
  KD(small)/KD(big): 5.27
neuron-derived exosomes, normalized to aggregate surface area
  binding affinity of the vesicles compared to the smaller Aβ42 aggregates: > 5 fold
